The record followed here is PubChem BioAssay AID504685 (Sanford-Burnham Center for Chemical Genomics, 2011).

Active and inactive are the calls of the source. No rule for the calls is given here.

This test addresses Bcl-2-related protein A1 (Mus musculus) (UniProt Q07440). Nature of the test: Bfl-1 counter-screen inhibitors, SAR follow-up, counter-screen for UBC13 polyubiquitination inhibitor project, biochemical, mouse Bfl-1 (AID 504685). The following applies: Bfl-1 counterscreen for UBC13 inhibitors. In general terms: Counterscreens check selectivity or assay interference.
The term IC50 denotes the concentration that gives 50% inhibition. On to `CC(=O)c1ccccc1OCC(O)CN1CCN(CCN2C(=O)c3cccc4cccc(c34)C2=O)CC1` (centres undefined), for which the half-inhibitory concentration (IC50) is 93.1 µM.
Turning to `O=C(CCCn1c(=O)c2ccccc2n(Cc2cccc([N+](=O)[O-])c2)c1=O)NC1CCN(Cc2ccccc2)CC1`, the IC50 is > 100 µM (inactive).
`COC(=O)c1ccc(OCC(O)CN2CCN(CCN3C(=O)c4cccc5cccc(c45)C3=O)CC2)cc1` (centres undefined): the half-inhibitory concentration (IC50) was 56.9 µM.
The result for `COc1ccc(CCNC(=O)CCCCCN2C(=O)c3ccccc3C2=O)cc1OC` reads > 100 µM (inactive).
`COc1cccc(NC(=O)CCCCCN2C(=O)c3cccc([N+](=O)[O-])c3C2=O)c1`: the IC50 is > 100 µM (inactive).
For `O=C(CCCCCN1C(=O)c2ccccc2C1=O)NCc1ccccc1` the value was > 100 µM (inactive).
For `O=C(CCCCCN1C(=O)c2cccc3cccc(c23)C1=O)NCc1cccnc1`, the IC50 is > 100 µM (inactive).
On to `O=C(CCCCn1c(=O)c2ccccc2n(Cc2ccccc2F)c1=O)NC1CCN(Cc2ccccc2)CC1`, for which the IC50 is > 100 µM (inactive).
On to `CC(=O)Nc1ccc(OCC(O)CN2CCN(CCN3C(=O)c4cccc5cccc(c45)C3=O)CC2)cc1` (centres undefined), for which the IC50 was > 100 µM (inactive).
Consider `CN(C)CCCN(C(=O)c1ccc(S(=O)(=O)N(C)Cc2ccccc2)cc1)c1nc2cc3c(cc2s1)OCO3`, for which the half-maximal inhibitory concentration (IC50) is 81 µM.
As for `O=C(C1CCN(c2ncnc3c2nc2n3CCCCC2)CC1)N1CCC(Cc2ccccc2)CC1`, the IC50 was > 100 µM (inactive).
The result for `Cc1ccc2nc(N(CCCN(C)C)C(=O)c3ccc(S(=O)(=O)N4CCc5ccccc5C4)cc3)sc2c1` reads > 100 µM (inactive); that for `O=C1c2cccc3cccc(c23)C(=O)N1CCN1CCN(CC(O)COc2ccc3ccccc3c2)CC1` (centres undefined), > 100 µM (inactive).
In the case of `O=C(CCCCCN1C(=O)c2ccccc2C1=O)Nc1ccc(S(=O)(=O)Nc2ncccn2)cc1`, the IC50 was > 100 µM (inactive).
In the case of `O=C1c2cccc3cccc(c23)C(=O)N1CCN1CCN(CC(O)COc2ccc3c(c2)OCO3)CC1` (centres undefined), the IC50 was > 100 µM (inactive).
`CC(NC(=O)CCCCCN1C(=O)c2cccc([N+](=O)[O-])c2C1=O)c1ccccc1` (centres undefined): the IC50 is > 100 µM (inactive).
In the case of `CN(C)CCCN(C(=O)c1ccc(S(=O)(=O)N2CCCCCC2)cc1)c1nc2ccc(Br)cc2s1`, the IC50 is > 100 µM (inactive).
For `O=C(CCCCCN1C(=O)c2cccc3cccc(c23)C1=O)NCCO`, the IC50 was > 100 µM (inactive).
For `CCOc1ccc2nc(N(CCCN(C)C)C(=O)c3ccc(S(=O)(=O)N4CCc5ccccc5C4)cc3)sc2c1` the value was > 100 µM (inactive); for `COc1ccc2sc(N(CCCN(C)C)C(=O)c3ccc(S(=O)(=O)N4CCc5ccccc5C4)cc3)nc2c1`, > 100 µM (inactive); for `O=C(CCCn1c(=O)c2ccccc2n(Cc2ccccc2F)c1=O)NC1CCN(Cc2ccccc2)CC1`, > 100 µM (inactive).
As to `COc1ccc2sc(N(CCCN(C)C)C(=O)c3ccc(S(=O)(=O)N(C)Cc4ccccc4)cc3)nc2c1`, the IC50 was 79.4 µM.
Consider `CC(NC(=O)CCCCCN1C(=O)c2ccccc2C1=O)c1nc(-c2ccccc2)no1` (centres undefined), for which the IC50 was > 100 µM (inactive).
`Cc1ccccc1NC(=S)NC(=O)CCCCCN1C(=O)c2ccccc2C1=O`: the IC50 was > 100 µM (inactive).
`O=C1c2cccc3cccc(c23)N1Cc1ccc(F)cc1`: the IC50 is > 100 µM (inactive).
As to `CCN(Cc1ccccc1)S(=O)(=O)c1ccc(C(=O)N(CCCN(C)C)c2nc3cc4c(cc3s2)OCCO4)cc1`, the IC50 is 84 µM.
As to `O=C1c2cccc3cccc(c23)C(=O)N1CCN1CCN(CC(O)COc2ccc(C3CCCCC3)cc2)CC1` (centres undefined), the IC50 was > 100 µM (inactive).
Turning to `CC1CCCC(C)N1CCCNC(=O)C1CCCN(c2ncnc3c2nc2n3CCCCC2)C1` (centres undefined), the IC50 was > 100 µM (inactive).
Regarding `CCN(Cc1ccccc1)S(=O)(=O)c1ccc(C(=O)N(CCCN(C)C)c2nc3cc(C)cc(C)c3s2)cc1`, the IC50 is > 100 µM (inactive).
For the compound `O=C(CCCCCN1C(=O)c2ccccc2C1=O)NCc1ccco1`, the IC50 was > 100 µM (inactive).
For `Cc1ccc(NC(=O)C2CCN(c3ncnc4c3nc3n4CCCCC3)CC2)cc1Cl`, the IC50 is > 100 µM (inactive).
`CCCCOC(=O)c1cccc(NC(=O)CCCCCN2C(=O)c3ccccc3C2=O)c1`: the IC50 was > 100 µM (inactive).
For `Cc1ccc2nc(N(CCCN(C)C)C(=O)c3ccc4c(c3)CCCC4)sc2c1`, the IC50 was > 100 µM (inactive).
With `Cc1ccc(C)c(OCC(O)CN2CCN(CCN3C(=O)c4cccc5cccc(c45)C3=O)CC2)c1` (centres undefined), the IC50 is > 100 µM (inactive).
For `CCN(Cc1ccccc1)S(=O)(=O)c1ccc(C(=O)N(CCCN(C)C)c2nc3cc4c(cc3s2)OCO4)cc1`, the concentration for half-maximal inhibition (IC50) is 57 µM.
As to `Cc1ccc(-c2oc3ncnc(N)c3c2-c2ccc(C)cc2)cc1`, the IC50 was > 100 µM (inactive).
Turning to `N#Cc1ccccc1Cn1c(=O)n(CCCC(=O)NC2CCN(Cc3ccccc3)CC2)c(=O)c2ccccc21`, the IC50 was > 100 µM (inactive).
Take `COc1ccc(COCC(O)CN2CCC(CN3C(=O)c4cccc5cccc(c45)C3=O)CC2)cc1OC` (centres undefined): the IC50 was > 100 µM (inactive).
Consider `O=C(CCCCCN1C(=O)c2ccccc2C1=O)Nc1ccc(S(=O)(=O)N2CCCCC2)cc1`, for which the IC50 was > 100 µM (inactive).
Regarding `COc1ccccc1NC(=S)NC(=O)CCCCCN1C(=O)c2ccccc2C1=O`, the IC50 was > 100 µM (inactive).
As for `CCOC(=O)c1c(NC(=O)COc2ccccc2C#N)sc2c1CC(C)(C)NC2(C)C`, the IC50 is > 100 µM (inactive).
With `Cc1cccc(OCC(O)CN2CCN(CCN3C(=O)c4cccc5cccc(c45)C3=O)CC2)c1C` (centres undefined), the IC50 was > 100 µM (inactive).
For `O=C(Nc1ccc(F)c(Cl)c1)C1CCN(c2ncnc3c2nc2n3CCCCC2)CC1` the value was > 100 µM (inactive).
For `CCOc1ccc(NC(=O)Cn2c(=O)n(CCCC(=O)NC3CCN(Cc4ccccc4)CC3)c(=O)c3ccccc32)cc1` the value was > 100 µM (inactive).
Turning to `Cc1ccc2c(c1)C1CN(C)CCC1N2C(=O)CCCN1C(=O)c2cccc3cccc(c23)C1=O` (centres undefined), the IC50 was > 100 µM (inactive).
As for `COc1ccc(CCNC(=O)CCCCCN2C(=O)c3ccccc3C2=O)cc1`, the IC50 was > 100 µM (inactive).
Take `Cc1nc2ccccc2c(=O)n1NC(=O)c1ccc(OC(F)F)cc1`: the IC50 is > 100 µM (inactive).
`COc1ccc(-c2oc3ncnc(N)c3c2-c2ccccc2)cc1`: the IC50 is > 100 µM (inactive).
The result for `Cc1ccccc1CN1CCC(CNC(=O)C2CCCN(c3ncnc4c3nc3n4CCCCC3)C2)CC1` (centres undefined) reads > 100 µM (inactive); that for `O=C(c1ccc(S(=O)(=O)N2CCCC2)cc1)N1CCC(CN2C(=O)c3cccc4cccc(c34)C2=O)CC1`, > 100 µM (inactive).
For `O=C1c2cccc3cccc(c23)C(=O)N1CC1CCN(CC(O)COc2ccc3ccccc3c2)CC1` (centres undefined) the value was 68.5 µM; for `CCc1ccc2nc(N(CCCN(C)C)C(=O)c3ccc(S(=O)(=O)N4CCc5ccccc5C4)cc3)sc2c1`, > 100 µM (inactive).
In the case of `CN(C)CCCN(C(=O)c1ccc2c(c1)CCCC2)c1nc2ccc(Cl)cc2s1`, the IC50 was > 100 µM (inactive).
As for `CN(C)CCCN(C(=O)c1ccc(S(=O)(=O)N2CCc3ccccc3C2)cc1)c1nc2ccc(F)cc2s1`, the 50% inhibitory concentration (IC50) is 60.7 µM.
